Target: T1, human GPR119 (Homo sapiens, UniProt Q8TDV5)
T1 sequence (Q8TDV5 1-335): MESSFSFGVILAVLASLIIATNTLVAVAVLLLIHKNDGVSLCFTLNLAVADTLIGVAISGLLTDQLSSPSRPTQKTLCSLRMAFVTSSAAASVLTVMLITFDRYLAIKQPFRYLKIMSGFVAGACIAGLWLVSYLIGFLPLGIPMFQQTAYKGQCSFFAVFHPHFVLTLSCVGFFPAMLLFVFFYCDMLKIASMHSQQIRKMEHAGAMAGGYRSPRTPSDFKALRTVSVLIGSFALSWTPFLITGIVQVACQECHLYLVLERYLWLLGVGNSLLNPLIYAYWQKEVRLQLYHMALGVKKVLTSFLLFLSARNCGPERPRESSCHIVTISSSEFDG
Test: GPR 119 radioligand binding assay ([3H]-Compound A or [3H]-Compound B, membranes of HEK 293FT cells over-expressing hGPR119)
Conditions: calculated from IC50 by Cheng-Prusoff; each line is a separate determination
Method: HEK 293FT cells (Invitrogen, Carlsbad, Calif.) were grown in a shake flask in 293Freestyle medium (Invitrogen) supplemented with 50 microg/mL neomycin and 10 mM HEPES (37 C, 8% carbon dioxide, shaking). The cells were centrifuged gently (approximately 500×g, 10 minutes) and the pellet resuspended in a mixture of Dulbecco's PBS(minus Mg++/−Ca++) supplemented with 18% fetal bovine serum (Sigma Aldrich) and P1 virus such that the multiplicity of infection (MOI) was 10 and the final cell density was 1.3×10^6/mL (total volume 2.5 liters). The cells were transferred to a 5 liter Wave Bioreactor Wavebag (Wave Technologies, MA) and incubated for 4 hours at 27 degrees Celsius (17 rocks/min, 7 degrees platform angle); at the end of the incubation period, an equal volume(2.5 liters) of 293Freestyle medium supplemented with 30 mM sodium butyrate (Sigma Aldrich) was added (final concentration=15 mM), and the cells were grown for 20 hours (37 degrees Celsius, 8% CO2 [0.2 liters/min}, 25 rocks/minute, 7 degrees platform angle). […]
The frozen cells were thawed on ice and centrifuged at 700×g (1400 rpm) for 10 minutes at 4 degrees Celsius. […] The protein concentration was determined using the Pierce BCA protein assay kit (Pierce reagents A #23223 and B #23224). […]

Ki [nM] | SMILES
45.8 | Cc1c(O[C@@H]2[C@@H]3COC[C@H]2CN(C(=O)OC2(C)CC2)C3)ncnc1N1CCc2ncccc21 [Example 28, 1-Methylcyclopropyl (9-syn)-9-{[6-(2,3-dihydro-1H-pyrrolo[3,2-b]pyridin-1-yl)-5-methylpyrimidin-4-yl]oxy}-3-oxa-7-azabicyclo[3.3.1]nonane-7-carboxylate]
130 | Cc1c(O[C@@H]2[C@@H]3COC[C@H]2CN(C(=O)OC(C)C)C3)ncnc1N1CCc2cc(S(C)(=O)=O)ccc21 [Example 23, Isopropyl (9-syn)-9-({5-methyl-6-[5-(methylsulfonyl)-2,3-dihydro-1H-indol-1-yl]pyrimidin-4-yl}oxy)-3-oxa-7-azabicyclo[3.3.1]nonane-7-carboxylate]
